Test results from patent US11566007B2, “Ras inhibitors” (Revolution Medicines, Inc., priority 2019, dated 2023).
Read-outs that look alike come from different tables or passages of the source.

How the values were obtained:
KRAS Q61H = KRAS Q61H (Homo sapiens (Human), UniProt P01116+P62937, Q61H); test: Ras-Raf (BRAF RBD) disruption / FRET / MOA assay, KRAS Q61H; type: biochemical
Procedure: The purpose of this biochemical assay is to measure the ability of test compounds to facilitate ternary complex formation between a nucleotide-loaded Ras isoform and cyclophilin A; the resulting ternary complex disrupts binding to a BRAF^RBD construct, inhibiting Ras signaling through a RAF effector.
(§1) […]. Compound is present in plate wells as a 10-point 3-fold dilution series starting at a final concentration of 30 μM. After incubation at 25° C. for 3 hours, a mixture of Anti-His Eu-W1024 and anti-GST allophycocyanin is then added to assay sample wells at final concentrations of 10 nM and 50 nM, respectively, and the reaction incubated for an additional 1.5 hours. […] Compounds that facilitate disruption of a Ras:RAF complex are identified as those eliciting a decrease in the TR-FRET ratio relative to DMSO control wells.
Note—The following protocol describes a procedure for monitoring disruption of K-Ras G12C (GMP-PNP) binding to BRAF^RBD by a compound of the invention. This protocol may also be executed substituting other Ras proteins or nucleotides.
The purpose of this biochemical assay was to measure the ability of test compounds to facilitate ternary complex formation between a nucleotide-loaded K-Ras isoform and Cyclophilin A; the resulting ternary complex disrupts binding to a BRAF^RBD construct, inhibiting K-Ras signaling through a RAF effector. Data is reported as IC50 values.
as §1, with “Compound was” for “Compound is”, “allophycocyanin was” for “allophycocyanin is”, “a K-Ras:RAF” for “a Ras:RAF”, “complex were” for “complex are”

KRAS G12D = KRAS G12D (Homo sapiens (Human), UniProt P01116+P62937, G12D); test: Ras-Raf (BRAF RBD) disruption / FRET / MOA assay, KRAS G12D; type: biochemical
Chain of KRAS G12D (P01116-2 other isoform, or with tags, fused parts or gaps G12D): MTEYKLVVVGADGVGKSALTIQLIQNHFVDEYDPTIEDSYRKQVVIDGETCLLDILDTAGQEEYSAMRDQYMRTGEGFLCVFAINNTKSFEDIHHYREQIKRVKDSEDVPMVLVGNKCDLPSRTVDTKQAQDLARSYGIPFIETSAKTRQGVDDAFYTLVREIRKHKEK
Chain of KRAS G12D (P62937 whole entry): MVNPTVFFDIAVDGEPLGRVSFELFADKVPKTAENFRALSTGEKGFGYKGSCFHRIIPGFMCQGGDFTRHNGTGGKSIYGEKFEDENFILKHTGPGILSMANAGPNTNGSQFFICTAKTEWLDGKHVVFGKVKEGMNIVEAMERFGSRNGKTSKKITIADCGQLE
How it was run: (§2)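 Compound-driven ternary complex of nucleotide-loaded Ras with cyclophilin A, disrupting BRAF RBD binding. 10-point 3-fold dilution from 30 μM final, 3 h at 25° C, then anti-His Eu-W1024 (10 nM) and anti-GST allophycocyanin (50 nM) for 1.5 h. IC50 from TR-FRET ratio decrease versus DMSO.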

[1] = tested on: NCI-H358 cells (K-Ras G12C); test: Potency assay: pERK in NCI-H358 cells; type: cell-based, human; settings: H358 KRAS G12C, read-out: pERK EC50
How it was run: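 4 h cpd, 37 °C; 10-pt 3-fold series, 10 mM DMSO top stock, duplicates. Readout pERK: AlphaLISA SureFire Ultra or In-Cell Western (IR-800CW secondary, DRAQ5 DNA stain). IC50, 4-PL fit vs log conc.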

KRAS G12S = KRAS G12S (Homo sapiens (Human), UniProt P01116+P62937, G12S); test: Ras-Raf (BRAF RBD) disruption / FRET / MOA assay, KRAS G12S; type: biochemical
Chain of KRAS G12S (P01116-2 other isoform, or with tags, fused parts or gaps G12S): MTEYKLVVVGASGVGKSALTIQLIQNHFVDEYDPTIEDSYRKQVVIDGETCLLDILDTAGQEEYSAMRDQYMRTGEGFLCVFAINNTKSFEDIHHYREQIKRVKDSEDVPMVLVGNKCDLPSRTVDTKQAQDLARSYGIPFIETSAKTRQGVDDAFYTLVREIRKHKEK
Chain of KRAS G12S (P62937 whole entry): as the sequence (P62937 whole entry) above
How it was run: as §2

NCI-H358 (K-Ras G12C) = test: CellTiter-Glo cell viability assay, NCI-H358; type: cell-based, human; settings: NCI-H358, 5-day treatment, class symbols, read-out: Additional H358 Cell Viability assay data (K-Ras G12C, IC50)
How it was run: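 Viability measured by CellTiter-Glo luminescence on day 5 following direct addition of compound to plated cells. Values expressed as percent of mean DMSO signal; curves fitted with a four-parameter logistic model.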

[2] = Ras-Raf disruption/FRET/MOA assay; class symbols; read-out: KRAS Q61H FRET data IC50
[3] = Ras-Raf disruption/FRET/MOA assay; class symbols; read-out: KRAS G12D FRET data IC50
[4] = Ras-Raf disruption/FRET/MOA assay; class symbols; read-out: KRAS G12S FRET data IC50

Chain of KRAS Q61H (P01116-2 other isoform, or with tags, fused parts or gaps Q61H): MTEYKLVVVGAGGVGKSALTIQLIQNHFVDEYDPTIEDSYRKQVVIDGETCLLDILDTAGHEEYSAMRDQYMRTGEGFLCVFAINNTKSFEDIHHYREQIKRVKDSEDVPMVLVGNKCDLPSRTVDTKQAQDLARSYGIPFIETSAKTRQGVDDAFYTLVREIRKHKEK
Chain of KRAS Q61H (P62937 whole entry, canonical isoform): as the sequence (P62937 whole entry) above

SMILES	IC50 (KRAS Q61H; read-out: KRAS Q61H FRET data IC50; Ras-Raf disruption/FRET/MOA assay; class symbols)	IC50 (KRAS G12D; read-out: KRAS G12D FRET data IC50; Ras-Raf disruption/FRET/MOA assay; class symbols)	EC50 ([1]; Homo sapiens, NCI-H358)	IC50 (KRAS G12S; read-out: KRAS G12S FRET data IC50; Ras-Raf disruption/FRET/MOA assay; class symbols)	IC50 (NCI-H358 (K-Ras G12C); Homo sapiens, NCI-H358, 120 h)	IC50 (KRAS Q61H; [2])	IC50 (KRAS G12D; [3])	EC50 [1]	IC50 (KRAS G12S; [4])	IC50 (NCI-H358 (K-Ras G12C))
C=CC(=O)N1CC[C@H](C(=O)N(C)[C@H](C(=O)N[C@H]2Cc3cc(sn3)-c3ccc4c(c3)c(c(-c3cccnc3[C@H](C)OC)n4CC)CC(C)(C)COC(=O)[C@@H]3CCCN(N3)C2=O)C(C)C)C1 (atropisomer, axis not shown) [Example A277]	0.1 to 1 µM	> 10 µM	< 5 µM	1 to 10 µM	0.1 to 1 µM					
C=CC(=O)N1CC[C@H](C(=O)N(C)[C@H](C(=O)N[C@H]2CC3=NC=C(O3)c3ccc4c(c3)c(c(-c3cccnc3[C@H](C)OC)n4CC)CC(C)(C)COC(=O)[C@@H]3CCCN(N3)C2=O)C(C)C)C1 (atropisomer, axis not shown) [Example A331]						1 to 10 µM	> 10 µM	< 5 µM	1 to 10 µM	0.1 to 1 µM
CCn1c(-c2cccnc2[C@H](C)OC)c2c3cc(ccc31)-c1cccc(c1)C[C@H](NC(=O)[C@H](C(C)C)N(C)C(=O)[C@H]1CCN(C(=O)C#CC(C)(C)N(C)C)C1)C(=O)N1CCC[C@H](N1)C(=O)OCC(C)(C)C2 (atropisomer, axis not shown) [Example A339]						1 to 10 µM	> 10 µM	< 5 µM	1 to 10 µM	< 0.01 µM
C=CC(=O)Nc1ncc(C(=O)N(C)[C@H](C(=O)N[C@H]2Cc3cccc(c3)-c3ccc4c(c3)c(c(-c3cccnc3[C@H](C)OC)n4CC)CC(C)(C)COC(=O)[C@@H]3CCCN(N3)C2=O)C(C)C)n1C (atropisomer, axis not shown) [Example A475]						0.1 to 1 µM	> 10 µM	< 5 µM	1 to 10 µM	
C=CC(=O)N1CCN(C(=O)N(C)[C@H](C(=O)N[C@H]2Cc3nc(cs3)-c3ccc4c(c3)c(c(-c3cccnc3[C@H](C)OC)n4CC)CC(C)(C)COC(=O)[C@@H]3CCCN(N3)C2=O)C(C)C)CC1 (atropisomer, axis not shown) [Example A492]						0.01 to 0.1 µM	0.1 to 1 µM	< 5 µM	0.01 to 0.1 µM	< 0.01 µM
C=CC(=O)N1CCN(C(=O)N(C)[C@H](C(=O)N[C@H]2Cc3nc(cs3)-c3ccc4c(c3)c(c(-c3cccnc3[C@H](C)OC)n4CC)CC(C)(C)COC(=O)[C@@H]3CCCN(N3)C2=O)C(C)C)CC1 (atropisomer, axis not shown) [Example A493]						0.01 to 0.1 µM	0.1 to 1 µM	< 5 µM	0.01 to 0.1 µM	< 0.01 µM
C=CC(=O)N1CC[C@H](C(=O)N(C)[C@H](C(=O)N[C@H]2Cc3cc(CF)cc(c3)-c3ccc4c(c3)c(c(-c3cccnc3[C@H](C)OC)n4CC)CC(C)(C)COC(=O)[C@@H]3CCCN(N3)C2=O)C(C)C)C1 (atropisomer, axis not shown) [Example A504]						0.1 to 1 µM	1 to 10 µM	< 5 µM	1 to 10 µM	< 0.01 µM
C=CC(=O)N1CC[C@H](C(=O)N(C)[C@H](C(=O)N[C@H]2Cc3cc(CF)cc(c3)-c3ccc4c(c3)c(c(-c3cccnc3[C@H](C)OC)n4CC)CC(C)(C)COC(=O)[C@@H]3CCCN(N3)C2=O)C(C)C)C1 (atropisomer, axis not shown) [Example A505]						0.1 to 1 µM	1 to 10 µM	< 5 µM	1 to 10 µM	< 0.01 µM
C=CC(=O)N1CC[C@H](C(=O)N(C)[C@H](C(=O)N[C@H]2Cc3cc(O)cc(c3)-c3ccc4c(c3)c(c(-c3ccccc3N3CCOCC3)n4CC)CC(C)(C)COC(=O)[C@@H]3CCCN(N3)C2=O)C(C)C)C1 [Example A026]						1 to 10 µM	> 10 µM		> 10 µM	
C=CC(=O)N1CC[C@H](C(=O)N(C)[C@H](C(=O)N[C@H]2Cc3cc(O)cc(c3)-c3ccc4c(c3)c(c(-c3cccnc3)n4CC)CC(C)(C)COC(=O)[C@@H]3CCCN(N3)C2=O)C(C)C)C1 [Example A045]						0.1 to 1 µM	> 10 µM		1 to 10 µM	
C=CC(=O)N1CC[C@H](C(=O)N(C)[C@H](C(=O)N[C@H]2Cc3cc(O)cc(c3)-c3ccc4c(c3)c(c(-c3ccc5c(c3)OCCN5C)n4CC)CC(C)(C)COC(=O)[C@@H]3CCCN(N3)C2=O)C(C)C)C1 [Example A050]						1 to 10 µM	> 10 µM		1 to 10 µM	
C=CC(=O)N1CC[C@H](C(=O)N(C)[C@H](C(=O)N[C@H]2Cc3cc(O)cc(c3)-c3ccc4c(c3)c(c(-c3cccnc3N3CC(OC)C3)n4CC)CC(C)(C)COC(=O)[C@@H]3CCCN(N3)C2=O)C(C)C)C1 [Example A060]						1 to 10 µM	> 10 µM		1 to 10 µM	
C=CC(=O)N1CC[C@H](C(=O)N(C)[C@H](C(=O)N[C@H]2Cc3cc(O)cc(c3)-c3ccc4c(c3)c(c(-c3cncnc3)n4CC)CC(C)(C)COC(=O)[C@@H]3CCCN(N3)C2=O)C(C)C)C1 [Example A061]						1 to 10 µM	> 10 µM		1 to 10 µM	
C=CC(=O)N1CC[C@H](C(=O)N(C)[C@H](C(=O)N[C@H]2Cc3cc(O)cc(c3)-c3ccc4c(c3)c(c(C3=C(COC)CCCC3)n4CC)CC(C)(C)COC(=O)[C@@H]3CCCN(N3)C2=O)C(C)C)C1 [Example A064]						0.1 to 1 µM	> 10 µM		0.1 to 1 µM	
C=CC(=O)N1CC[C@H](C(=O)N(C)[C@H](C(=O)N[C@H]2Cc3cc(O)cc(c3)-c3ccc4c(c3)c(c(-c3cncc(COC)c3)n4CC)CC(C)(C)COC(=O)[C@@H]3CCCN(N3)C2=O)C(C)C)C1 [Example A083]						0.1 to 1 µM	> 10 µM		0.1 to 1 µM	
C=CC(=O)N1CC[C@H](C(=O)N(C)[C@H](C(=O)N[C@H]2Cc3cc(O)cc(c3)-c3ccc4c(c3)c(c(-c3cnn5c3[C@@H](OC)CCC5)n4CC)CC(C)(C)COC(=O)[C@@H]3CCCN(N3)C2=O)C(C)C)C1 [Example A333]						0.01 to 0.1 µM	0.1 to 1 µM	< 5 µM	0.01 to 0.1 µM	< 0.01 µM
C=CC(=O)N1CCN(C(=O)N(C)[C@H](C(=O)N[C@H]2Cc3cc(O)cc(c3)-c3ccc4c(c3)c(c(-c3cccnc3[C@H](C)OC)n4CC)CC(C)(C)COC(=O)[C@@H]3CCCN(N3)C2=O)C(C)C)CC1 [Example A338]						0.01 to 0.1 µM	0.1 to 1 µM	< 5 µM	0.01 to 0.1 µM	0.01 to 0.1 µM
C=CC(=O)N1CCOC2(CCN(C(=O)N(C)[C@H](C(=O)N[C@H]3CN4CCC=C(C4)c4ccc5c(c4)c(c(-c4cccnc4[C@H](C)OC)n5CC)CC(C)(C)COC(=O)[C@@H]4CCCN(N4)C3=O)C(C)C)CC2)C1 [Example A563]						1 to 10 µM	> 10 µM	< 5 µM	1 to 10 µM	0.1 to 1 µM
